We go through nine compounds from PubChem BioAssay (NCI).

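Compound exposure: 48 hours, 5 concentrations, 96-well plates. At the GI50, growth is halved. TGI denotes the concentration required for complete inhibition of growth.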

Some test systems named below: NCI-H23 lung; SF-539 CNS; MDA-MB-231 breast; SK-MEL-5 melanoma; SK-OV-3 ovarian; HT29 colon; HCT-15 colon; RXF 393 renal; EKVX NSCLC; HOP-92 NSCLC.
Assay in all cases: growth of human tumour cells (NCI), 48 h

Turning to `N#Cc1c(N)[nH]c2ccc(Sc3ccccc3)cc12`, the TGI in the test on NCI-H23 lung stood at 10.3 µM; with SF-539 CNS it was 0.694 µM; in the test with MDA-MB-231 breast, 15.4 µM; in the test on SK-MEL-5 melanoma, 4.43 µM; with SK-OV-3 ovarian, 20.3 µM; in the test on HT29 colon, 9.01 µM. The TGI with HCT-15 colon was determined as 14.9 µM; in the test on RXF 393 renal, 5.48 µM; with EKVX NSCLC, 11.7 µM; with HOP-92 NSCLC it was 19.8 µM.

In the case of `c1ccc2c3c([nH]c2c1)C1CCCN1CC3` (stereo not given), the TGI with NCI-H23 lung, with SF-539 CNS, with MDA-MB-231 breast, in the test with SK-MEL-5 melanoma, with SK-OV-3 ovarian and with HT29 colon was above 10 µM each time. Further, the TGI in the test on HCT-15 colon, with RXF 393 renal, in the test with EKVX NSCLC and with HOP-92 NSCLC was above 10 µM throughout.

Turning to `Nc1ccc(-c2nc3ccccc3[nH]2)c2ccccc12`, the GI50 in the test on NCI-H23 lung was 3.24 µM; with SF-539 CNS, 3.11 µM; with MDA-MB-231 breast, 8.16 µM; in the test with SK-MEL-5 melanoma it was 1650 nM; in the test with SK-OV-3 ovarian, 3.23 µM; in the test with HT29 colon, 1490 nM. Also, the GI50 is 6.35 µM in the test on HCT-15 colon, 1.83 µM with RXF 393 renal, 14.5 µM in the test on EKVX NSCLC and 1.57 µM with HOP-92 NSCLC. In addition, the TGI with NCI-H23 lung was above 30.3 µM; in the test on SF-539 CNS, 17 µM; in the test on MDA-MB-231 breast it was above 41.7 µM; in the test with SK-MEL-5 melanoma it was 8.5 µM; in the test on SK-OV-3 ovarian, 57.5 µM; in the test on HT29 colon, 14.6 µM. Further, the TGI in the test with HCT-15 colon was 20.8 µM; in the test on RXF 393 renal it was 12.2 µM; with EKVX NSCLC, above 100 µM; with HOP-92 NSCLC, 9.61 µM.

Take `C[CH2][Pb]([CH2]C)([CH2]C)[O]C(=O)c1ccc2ccccc2n1`: the GI50 in the test with NCI-H23 lung was above 10 µM; in the test on SF-539 CNS, above 10 µM; with MDA-MB-231 breast, above 10 µM; in the test with SK-MEL-5 melanoma, above 10000 nM; in the test with SK-OV-3 ovarian, above 10 µM; in the test on HT29 colon, above 10000 nM. Moreover, the GI50 with HCT-15 colon, with RXF 393 renal, in the test on EKVX NSCLC and with HOP-92 NSCLC was above 10 µM each time. The TGI in the test on NCI-H23 lung, with SF-539 CNS, in the test with MDA-MB-231 breast, in the test on SK-MEL-5 melanoma, with SK-OV-3 ovarian and in the test on HT29 colon was above 10 µM each time. For the same compound, the TGI in the test with HCT-15 colon, in the test with RXF 393 renal, in the test on EKVX NSCLC and with HOP-92 NSCLC was above 10 µM in each case.

`C[C@@H]1O[C@@H](O[C@H]2CC[C@@]3(C)[C@H](CCC4[C@@H]3C(O)C[C@]3(C)[C@@H](c5ccc(=O)oc5)CC[C@]43O)C2)[C@H](O)[C@H](O)[C@H]1O` (stereo not given in full): the GI50 was below 0.00325 µM with NCI-H23 lung; 0.00421 µM in the test with SF-539 CNS; 0.0112 µM with MDA-MB-231 breast; 5.61 nM in the test on SK-MEL-5 melanoma; 0.00502 µM in the test on SK-OV-3 ovarian; 4.81 nM in the test with HT29 colon. The GI50 in the test on HCT-15 colon was 0.00786 µM; in the test on RXF 393 renal, 0.0064 µM; with EKVX NSCLC, 0.00379 µM; in the test with HOP-92 NSCLC it was 0.00786 µM. Moreover, the TGI turned out to be 0.00672 µM in the test on NCI-H23 lung; 0.00897 µM in the test on SF-539 CNS; 0.0369 µM in the test with MDA-MB-231 breast; 0.0107 µM with SK-MEL-5 melanoma; 0.00987 µM with SK-OV-3 ovarian; 0.00975 µM in the test on HT29 colon. In addition, the TGI with HCT-15 colon is 0.0209 µM; in the test with RXF 393 renal, 0.0194 µM; in the test on EKVX NSCLC, 0.00766 µM; in the test on HOP-92 NSCLC it was 0.0216 µM.

Regarding `CC1(C)CCC[C@]2(C)[C@@H](C=O)C(C=O)=CC[C@@H]12`, the TGI with NCI-H23 lung was 69.5 µM; with SF-539 CNS, 53.3 µM; in the test on MDA-MB-231 breast it was 23.1 µM; with SK-MEL-5 melanoma, 29 µM; with SK-OV-3 ovarian, above 100 µM; in the test on HT29 colon, 30 µM. Further, the TGI is 30.7 µM with HCT-15 colon, 34.6 µM with RXF 393 renal, above 100 µM with EKVX NSCLC and 53 µM with HOP-92 NSCLC.

As for `COC12c3ccccc3-c3ccccc3C1[C@H]1C(=O)OC(=O)[C@H]12` (stereo not given in full), the TGI in the test on NCI-H23 lung, in the test on SF-539 CNS, in the test with MDA-MB-231 breast, in the test with SK-MEL-5 melanoma, in the test with SK-OV-3 ovarian and in the test with HT29 colon was above 10 µM each time. Moreover, the TGI with HCT-15 colon, in the test on RXF 393 renal, with EKVX NSCLC and in the test with HOP-92 NSCLC was above 10 µM in each case.

With `CN1CCN(CC(O)COc2c(Br)c(Br)c(Br)c3c2OC(C)(C)C3)CC1` (stereo not given), the GI50 with NCI-H23 lung was 14 µM; in the test on SF-539 CNS it was 3.21 µM; in the test on MDA-MB-231 breast, 2.56 µM; in the test with SK-MEL-5 melanoma, 1830 nM; in the test with SK-OV-3 ovarian, 18.4 µM; with HT29 colon, 2160 nM. In addition, the GI50 is 2.79 µM in the test on HCT-15 colon, 3.3 µM in the test with RXF 393 renal, 5.21 µM with EKVX NSCLC and 3.1 µM in the test on HOP-92 NSCLC. Also, the TGI stood at 34.1 µM in the test on NCI-H23 lung; 13.5 µM with SF-539 CNS; 6.8 µM in the test with MDA-MB-231 breast; 3.27 µM in the test with SK-MEL-5 melanoma; 38.4 µM with SK-OV-3 ovarian; 4.54 µM with HT29 colon. In addition, the TGI was found to be 6.16 µM in the test on HCT-15 colon, 6.53 µM in the test on RXF 393 renal, 19.7 µM with EKVX NSCLC and 12.2 µM in the test on HOP-92 NSCLC.

For the compound `BrCc1ccc(CBr)cc1`, the GI50 in the test on NCI-H23 lung was 10.7 µM; in the test on SF-539 CNS, 3.02 µM; in the test on MDA-MB-231 breast, 13.9 µM; in the test with SK-MEL-5 melanoma, 14300 nM; in the test on SK-OV-3 ovarian, 0.477 µM; in the test with HT29 colon, 4380 nM. Besides, the GI50 in the test with HCT-15 colon was 5.44 µM; in the test with RXF 393 renal, 5.61 µM; with EKVX NSCLC it was 10.5 µM; in the test on HOP-92 NSCLC it was 18.7 µM. Besides, the TGI with NCI-H23 lung was above 35.4 µM; in the test on SF-539 CNS it was 11.8 µM; in the test on MDA-MB-231 breast it was 35.1 µM; with SK-MEL-5 melanoma it was 40.2 µM; in the test on SK-OV-3 ovarian it was 7.24 µM; in the test on HT29 colon, above 23.9 µM. For the same compound, the TGI with HCT-15 colon is above 75.2 µM; with RXF 393 renal it was 16.2 µM; in the test with EKVX NSCLC it was 25.7 µM; with HOP-92 NSCLC it was 53.7 µM.
